# Source: US20200016277A1, “NANOPARTICLES FOR ACTIVE AGENT DELIVERY TO BRAIN CANCERS” (MUSC FOUNDATION FOR RESEARCH DEVELOPMENT, priority 2017, published 2020)
# Tested on: U87 cells
# Assay: Cytotoxicity of TMZ micelles (Guava ViaCount cell viability assay)
# Protocol: Three cytotoxicity experiments, using Guava Via-Count Assay and flow cytometry (EMD Millipore, MA, USA), were performed using increasing concentrations of free TMZ, MTMZ and PMTMZ over increasing time. Cells (30,000 cells per well) were plated in 24-well plates and incubated overnight at 37° C. with 5% CO2. A TMZ solution (1 mg ml^−1) in DMSO was prepared and stored at 4° C. The stock solution was diluted with alpha-MEM and used to prepare free TMZ at increasing concentrations of 0-100 04. Independently, both 1 μM and 10 04 samples of PMTMZ and MTMZ were prepared with alpha-MEM. The triplicate wells were treated with concentrations at a constant volume of 200 μl per well. After 24 h, cell viability was performed using Guava ViaCount Assay and flow cytometry (EMD Millipore). The remaining wells were retreated with the appropriate concentrations over a 10 day period. Viability data was collected and analyzed.
compound,measurement,setting,value
"Cn1nnc2c(C(N)=O)ncn2c1=O [free TMZ, temozolomide]",Cells killed (cell death),"U87, 1 μM, between 1 and 5 days",approximately 4%
same,Cell death,"U87, 10 or 100 μM, between 24 and 72 h",~2%
